In patent US20240299400A1, “Transcription Factor GLI1 Inhibitors and Uses Thereof” (University of Connecticut, priority 2023, published 2024):

How the values were obtained:
MAPK3 = target: T1, MAPK3 (Homo sapiens, UniProt P27361); assay: ZLyte kinase assay, MAPK3; type: biochemical; details: average of three replicates
T1 construct: purchased ThermoFisher Scientific (Madison, WI, USA), contract service
Experimental: (§1) Kinase screening experiments. Kinase inhibition/binding experiments were performed by ThermoFisher Scientific (Madison, WI, USA) as a contract service, utilizing their default protocols [G. Yernale, A comprehensive review on the biological interest of quinoline and its derivatives. Bioorg. Med. Chem. 32 (2021) 115973]. Briefly, for ZLyte assay, compound in DMSO (100 nL), kinase buffer (2.4 μL), peptide/kinase mixture (5 μL), and ATP solution (2.5 μL) were mixed in a black 384-well plate. Following a 30 s plate shake to mix reagents, the kinase assay mixture was incubated at RT for 60 min. Following addition of the development reagent solution to each well, another 60 min incubation was performed at RT for reaction development. Fluorescent signal was recorded and subsequently analyzed.

PRKACA = target: T2, PRKACA (Homo sapiens, UniProt P17612); assay: ZLyte kinase assay, PRKACA; type: biochemical; details: average of three replicates
T2 construct: purchased ThermoFisher Scientific (Madison, WI, USA), contract service
Experimental: as §1

DYRK2 = target: T3, DYRK2 (Homo sapiens, UniProt Q92630); assay: LanthaScreen binding assay, DYRK2; details: average of three replicates, read-out: % inhibition of the kinase DYRK2
T3 construct: purchased ThermoFisher Scientific (Madison, WI, USA), contract service
T3 sequence (Q92630 1-601): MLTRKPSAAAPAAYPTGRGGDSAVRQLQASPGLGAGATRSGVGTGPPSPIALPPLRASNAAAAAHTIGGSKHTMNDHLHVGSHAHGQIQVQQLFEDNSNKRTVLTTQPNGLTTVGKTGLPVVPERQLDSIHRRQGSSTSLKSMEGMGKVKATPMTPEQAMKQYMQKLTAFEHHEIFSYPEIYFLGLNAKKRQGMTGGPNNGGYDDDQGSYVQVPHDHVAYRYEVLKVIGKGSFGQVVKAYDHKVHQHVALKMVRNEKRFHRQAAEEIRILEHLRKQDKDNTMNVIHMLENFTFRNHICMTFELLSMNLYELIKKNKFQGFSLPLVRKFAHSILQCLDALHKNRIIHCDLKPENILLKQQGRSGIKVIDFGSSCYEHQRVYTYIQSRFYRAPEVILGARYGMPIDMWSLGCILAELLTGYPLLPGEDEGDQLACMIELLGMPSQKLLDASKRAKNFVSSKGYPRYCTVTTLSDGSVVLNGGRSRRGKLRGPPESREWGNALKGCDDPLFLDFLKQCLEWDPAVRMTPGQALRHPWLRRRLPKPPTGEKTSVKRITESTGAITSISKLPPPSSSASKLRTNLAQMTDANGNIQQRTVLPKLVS
Experimental: as §1
(§2) For the LanthaScreen Binding assay, compounds in DMSO (160 nL), kinase buffer (3.84 μL), kinase/antibody mixture (8.0 μL), and tracer (4.0 μL) were mixed in a white 384-well plate. Following a 30 s plate shake to mix the reagents, the kinase assay mixture was incubated at RT for 60 min. Fluorescent signals were recorded and subsequently analyzed.

CSNK2A1 = target: T4, CSNK2A1 (Homo sapiens, UniProt P68400); assay: ZLyte kinase assay, CSNK2A1; type: biochemical; details: average of three replicates
T4 construct: purchased ThermoFisher Scientific (Madison, WI, USA), contract service
Experimental: as §1

RPS6KB1 = target: T5, RPS6KB1 (Homo sapiens, UniProt P23443); assay: ZLyte kinase assay, RPS6KB1; type: biochemical; details: average of three replicates
T5 construct: purchased ThermoFisher Scientific (Madison, WI, USA), contract service
Experimental: as §1

GLI1-ZFD = target: T6, GLI1-ZFD (Homo sapiens, UniProt P08151); assay: Microscale thermophoresis (MST) binding to GLI1-ZFD
T6 construct: GLI1-ZFD Expression and Purification; made in house
T6 sequence (P08151 234-388 limits assumed): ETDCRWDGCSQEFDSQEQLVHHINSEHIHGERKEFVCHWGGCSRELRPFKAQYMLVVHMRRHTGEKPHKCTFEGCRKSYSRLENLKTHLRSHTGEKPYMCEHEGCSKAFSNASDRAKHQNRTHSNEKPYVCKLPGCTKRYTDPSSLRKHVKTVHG
In short: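 RED-NHS–labeled recombinant GLI1 zinc-finger domain (200 nM) was mixed with compound dilutions (DMSO<5%) in 50 mM HEPES pH 8.3, 100 mM NaCl. Binding was read by microscale thermophoresis on a Monolith NT.115.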

AKT1 = target: T7, AKT1 (Homo sapiens, UniProt P31749); assay: ZLyte kinase assay, AKT1; type: biochemical; details: average of three replicates
T7 construct: purchased ThermoFisher Scientific (Madison, WI, USA), contract service
Experimental: as §1

TGFBR1 = target: T8, TGFBR1 (Homo sapiens, UniProt P36897); assay: LanthaScreen binding assay, TGFBR1; details: average of three replicates, read-out: % inhibition of the kinase TGFBR1
T8 construct: purchased ThermoFisher Scientific (Madison, WI, USA), contract service
T8 sequence (P36897 34-503): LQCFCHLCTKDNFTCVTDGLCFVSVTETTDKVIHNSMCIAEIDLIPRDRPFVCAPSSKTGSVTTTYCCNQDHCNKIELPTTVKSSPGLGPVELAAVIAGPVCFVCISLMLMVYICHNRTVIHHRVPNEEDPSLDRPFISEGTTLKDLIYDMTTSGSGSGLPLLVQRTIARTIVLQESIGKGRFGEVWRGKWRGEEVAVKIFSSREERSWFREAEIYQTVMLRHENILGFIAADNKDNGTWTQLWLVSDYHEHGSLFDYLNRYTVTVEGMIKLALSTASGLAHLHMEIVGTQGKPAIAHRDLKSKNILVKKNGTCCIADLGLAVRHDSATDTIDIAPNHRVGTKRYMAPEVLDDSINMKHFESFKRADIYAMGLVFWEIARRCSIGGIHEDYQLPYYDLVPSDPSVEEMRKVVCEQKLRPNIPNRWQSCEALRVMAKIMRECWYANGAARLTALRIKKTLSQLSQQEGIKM
Experimental: as §1, §2

MAP2K1 = target: T9, MAP2K1 (Homo sapiens, UniProt Q02750); assay: ZLyte kinase assay, MAP2K1; type: biochemical; details: average of three replicates
T9 construct: purchased ThermoFisher Scientific (Madison, WI, USA), contract service
Experimental: as §1

MAPK1 = target: T10, MAPK1 (Homo sapiens, UniProt P28482); assay: ZLyte kinase assay, MAPK1; type: biochemical; details: average of three replicates
T10 construct: purchased ThermoFisher Scientific (Madison, WI, USA), contract service
Experimental: as §1

T7 sequence (P31749 whole entry): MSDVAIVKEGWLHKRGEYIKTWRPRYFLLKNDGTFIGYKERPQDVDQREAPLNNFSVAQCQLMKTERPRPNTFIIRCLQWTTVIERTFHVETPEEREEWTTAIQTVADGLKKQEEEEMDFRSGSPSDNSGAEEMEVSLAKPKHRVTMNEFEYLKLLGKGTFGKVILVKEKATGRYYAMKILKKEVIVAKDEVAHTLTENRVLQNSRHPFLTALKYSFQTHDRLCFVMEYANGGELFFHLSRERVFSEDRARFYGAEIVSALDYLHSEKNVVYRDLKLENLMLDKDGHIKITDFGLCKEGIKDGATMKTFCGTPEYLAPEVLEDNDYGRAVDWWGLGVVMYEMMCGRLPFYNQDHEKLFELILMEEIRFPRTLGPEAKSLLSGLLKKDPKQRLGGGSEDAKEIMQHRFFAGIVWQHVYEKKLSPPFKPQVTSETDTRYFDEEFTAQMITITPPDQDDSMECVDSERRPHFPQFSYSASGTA
T4 sequence (P68400 whole entry): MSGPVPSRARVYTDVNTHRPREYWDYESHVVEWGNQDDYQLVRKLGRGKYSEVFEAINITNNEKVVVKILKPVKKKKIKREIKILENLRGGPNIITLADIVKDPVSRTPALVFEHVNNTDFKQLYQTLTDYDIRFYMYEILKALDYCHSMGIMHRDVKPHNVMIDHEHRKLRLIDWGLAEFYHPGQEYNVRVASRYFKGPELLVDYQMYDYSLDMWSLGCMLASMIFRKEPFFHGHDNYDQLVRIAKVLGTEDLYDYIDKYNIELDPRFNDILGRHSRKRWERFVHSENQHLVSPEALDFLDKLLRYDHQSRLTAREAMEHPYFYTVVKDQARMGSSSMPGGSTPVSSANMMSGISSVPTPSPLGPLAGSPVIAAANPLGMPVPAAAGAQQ
T5 sequence (P23443 whole entry): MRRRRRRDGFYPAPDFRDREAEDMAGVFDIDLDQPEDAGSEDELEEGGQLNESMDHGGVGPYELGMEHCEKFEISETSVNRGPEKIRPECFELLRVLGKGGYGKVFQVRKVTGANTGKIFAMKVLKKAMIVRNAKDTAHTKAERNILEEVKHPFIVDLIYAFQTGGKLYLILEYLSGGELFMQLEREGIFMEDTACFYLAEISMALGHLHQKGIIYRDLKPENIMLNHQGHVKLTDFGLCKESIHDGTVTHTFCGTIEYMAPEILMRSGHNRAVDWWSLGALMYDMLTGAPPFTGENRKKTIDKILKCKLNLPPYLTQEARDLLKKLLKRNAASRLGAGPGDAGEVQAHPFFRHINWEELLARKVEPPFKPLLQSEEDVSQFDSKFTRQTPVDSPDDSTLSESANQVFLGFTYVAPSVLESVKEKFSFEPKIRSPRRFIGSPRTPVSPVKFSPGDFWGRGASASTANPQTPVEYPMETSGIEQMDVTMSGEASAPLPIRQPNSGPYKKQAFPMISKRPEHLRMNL
T1 sequence (P27361 whole entry): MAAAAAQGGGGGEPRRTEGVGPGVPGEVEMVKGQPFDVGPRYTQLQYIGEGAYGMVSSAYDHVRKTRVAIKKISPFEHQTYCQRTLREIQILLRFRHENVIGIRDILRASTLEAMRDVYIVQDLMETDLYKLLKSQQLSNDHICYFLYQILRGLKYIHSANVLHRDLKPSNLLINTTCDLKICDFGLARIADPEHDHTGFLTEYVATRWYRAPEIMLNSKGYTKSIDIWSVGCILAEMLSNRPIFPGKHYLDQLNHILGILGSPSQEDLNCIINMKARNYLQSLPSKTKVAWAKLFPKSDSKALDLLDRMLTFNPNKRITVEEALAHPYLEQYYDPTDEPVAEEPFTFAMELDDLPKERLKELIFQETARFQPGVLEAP
T9 sequence (Q02750 whole entry): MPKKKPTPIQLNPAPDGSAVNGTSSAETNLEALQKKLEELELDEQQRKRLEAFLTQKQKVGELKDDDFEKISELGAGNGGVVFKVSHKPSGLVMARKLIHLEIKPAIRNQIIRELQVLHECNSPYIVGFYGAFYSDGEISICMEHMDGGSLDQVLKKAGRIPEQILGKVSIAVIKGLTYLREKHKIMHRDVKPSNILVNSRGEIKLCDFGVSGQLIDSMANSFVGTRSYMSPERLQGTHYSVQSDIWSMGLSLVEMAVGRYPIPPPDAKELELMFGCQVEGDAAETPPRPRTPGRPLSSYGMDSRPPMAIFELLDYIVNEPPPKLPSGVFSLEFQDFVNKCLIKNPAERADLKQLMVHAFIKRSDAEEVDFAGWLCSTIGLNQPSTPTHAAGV
T10 sequence (P28482 whole entry): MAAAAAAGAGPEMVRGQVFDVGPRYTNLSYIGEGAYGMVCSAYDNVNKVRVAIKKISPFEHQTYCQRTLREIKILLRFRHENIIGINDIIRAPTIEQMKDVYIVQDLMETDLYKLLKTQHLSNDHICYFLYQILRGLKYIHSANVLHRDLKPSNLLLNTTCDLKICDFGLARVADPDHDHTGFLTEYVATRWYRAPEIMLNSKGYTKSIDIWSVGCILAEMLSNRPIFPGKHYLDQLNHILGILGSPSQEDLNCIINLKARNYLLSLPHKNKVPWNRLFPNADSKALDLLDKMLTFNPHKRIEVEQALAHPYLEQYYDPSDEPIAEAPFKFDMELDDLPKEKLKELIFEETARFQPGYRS

| Compound | inhibition at 1 µM (MAPK3) [%] | inhibition at 1 µM (PRKACA) [%] | inhibition at 1 µM (DYRK2) [%] | inhibition at 1 µM (CSNK2A1) [%] | inhibition at 1 µM (RPS6KB1) [%] | binding to GLI1 (in words) (GLI1-ZFD; MST binding assay) | Kd (GLI1-ZFD; Table 5, Ave ± SEM) [µM] | inhibition at 1 µM (AKT1) [%] | inhibition at 1 µM (TGFBR1) [%] | inhibition at 1 µM (MAP2K1) [%] | inhibition at 1 µM (MAPK1) [%] | Kd (GLI1-ZFD; Table 7, Ave ± SEM) [µM] |
| --- | --- | --- | --- | --- | --- | --- | --- | --- | --- | --- | --- | --- |
| CCN(CC)c1ccc(C(Nc2ccccn2)c2ccc3ccc(C)nc3c2OC)cc1 (stereo not shown) [Compound 20, N-((4-Diethylaminophenyl)(8-methoxy-2-methylquinolin-7-yl)methyl)pyridin-2-amine] | 4 | 4 | -2 | 5 | -2 | does not bind to GLI1 | > 125 | 4 | 6 | 7 | 10 | – |
| Cc1ccc2ccc(C(Nc3ccccn3)c3ccncc3)c(O)c2n1 (stereo not shown) [Compound 39, 7-((Pyridin-4-yl)(pyridin-2-ylamino)methyl)-2-methylquinolin-8-ol] | 2 | 6 | -4 | 2 | 0 | – | – | 7 | 2 | 14 | 7 | 9.1 ± 1.5 |
| Cc1ccc2ccc(C(Nc3ccccn3)c3ccc(N4CCCC4=O)cc3)c(O)c2n1 (stereo not shown) [Compound 48, 7-((4-(2-Oxopyrrolidin-1-yl)phenyl)(pyridin-2-ylamino)methyl)-2-methylquinolin-8-ol] | 7 | 7 | -1 | 2 | -1 | – | – | 10 | -2 | 14 | 12 | 8 ± 3.1 |
